# Source: PMC11019550, “Potent Inhibition of E. coli DXP Synthase by a gem-Diaryl Bisubstrate Analog” (ACS Infectious Diseases, 2024)
# What was measured:
# R478A EcDXPS = biological target: T1, R478A EcDXPS (Escherichia coli, UniProt P77488, R478A); experiment: IC50 determination for 8 on R478A EcDXPS variant; assay type: biochemical; conditions: 400 nM DXPS, 2 × Km pyruvate, 10 × Km D-GAP
# T1 construct: made in house
# Method: EcDXPS and IspC were preincubated with inhibitor for 10 min at 25 °C in assay reaction buffer (100 mM HEPES pH 8, 2 mM MgCl2, 5 mM NaCl, 1 mM ThDP, and 200 μM NADPH). Enzyme concentrations for variants were as follows: 200 nM DXPS (wildtype EcDXPS) and 4 μM IspC; 400 nM DXPS (R99A and R478A EcDXPS) and 6 μM IspC. The reaction was initiated by the addition of substrates at final concentrations of 2 × Km pyruvate and 10 × KmD-GAP. NADPH consumption was monitored at 340 nm for 10 min at 25 °C. The initial rate of NADPH consumption was used to determine the initial rate of DXP formation catalyzed by DXPS. Experiments were performed in triplicate and error bars represented standard error.
# [1] = tested on: porcine pyruvate dehydrogenase (PDH) E1 subunit; experiment: Inhibition of porcine pyruvate dehydrogenase (PDH); assay type: biochemical
# Source text: As noted, DXPS has a large active site and follows a mechanism requiring ternary complex formation, distinct from other ThDP-dependent pyruvate decarboxylases. We hypothesized that the sterically demanding scaffold of 8, predicted to engage both substrate binding sites, should display selectivity for DXPS. In a preliminary assessment, we tested 8 as an inhibitor of porcine pyruvate dehydrogenase (PDH) E1 subunit. […] For comparison, the selectivity ratio for 1 was estimated to be >15,000-fold for DXPS over porcine PDH.
# Figure S5. Evaluation of inhibitory activity of 8 against mammalian porcine pyruvate dehydrogenase (PDH). Porcine PDH (0.01 U/mL) and inhibitor (8 or MAP positive control) were preincubated for 10 minutes at 25 °C in enzyme buffer (2 mM MgCl2, 5 mM L-cysteine, 1 mM ThDP, 300 μM TCEP, 100 mM HEPES pH 8, 2.5 mM NAD +, and 100 μM coenzyme A). The reaction was initiated by addition of pyruvate (60 μM). The change in absorbance at 340 nm over time was measured and used to calculate the initial rate of NADH formation. The % activity of PDH in the presence of 8 or MAP was plotted using GraphPad Prism version 9. There is 21% inhibition of PDH activity observed in the presence of compound 8 at a concentration of 1 mM.
# Experiments were performed in triplicate. Error bars represent standard error.
# Figure S6. Replicate progress curves for DXP formation in the presence or absence of inhibitors 8 or 10 with EcDXPS. A) Progress curves for formation of DXP in the presence of 8 display time-dependence of inhibition. B) Progress curves for formation of DXP in the presence of descarboxyl […]
# WT EcDXPS = biological target: T2, WT EcDXPS (Escherichia coli, UniProt P77488); experiment: Circular dichroism titration (PLThDP formation, apparent KD) on WT EcDXPS; assay type: binding
# T2 construct: made in house
# Source text: The X-ray structure obtained from cocrystallization of DrDXPS with 1 (Figure 2) indicates the formation of the PLThDP adduct by reaction of the acetylphosphonate mimic of pyruvate with the C2 carbanion of ThDP. We reasoned that 8 should also engage the pyruvate binding site and react with ThDP to form a PLThDP adduct. Circular dichroism (CD) is a powerful tool that can be used to detect LThDP and LThDP-like adducts on thiamin-dependent enzymes,[56],[67]−[75] including DXPS.[31],[36],[43],[44],[49]−[52],[76] DXPS bound to ThDP (E-ThDP) is characterized by a CD λmin at 320 nm, indicative of the 4′-aminopyrimidine (AP) tautomer of ThDP (Figure 8A). Upon addition of pyruvate to E-ThDP, a new positive signal emerges at 313 nm, indicating the formation of LThDP in its 1′,4′-iminopyrimidine (IP) form. Similarly, upon addition of AP-based inhibitors to E-ThDP, the E-PLThDP adduct is formed, characterized by an increasing, broad CD signal.[69],[77],[78] Determination of apparent KD of PLThDP by plotting the CD signal corresponding to PLThDP versus [MAP] has been used as a proxy for PLThDP affinity.[77],[78] To confirm that 8 reacts with ThDP to form PLThDP in the DXPS active site, the change in CD signal upon addition of 8 (0.25–30 μM) to EcDXPS (30 μM) was measured. […] Plotting the CD signal at 294 nm versus affords a curve that approaches the limiting asymptotes defined by infinitely tight binding (Figure 8C),[79],[80] which is expected for this nanomolar inhibitor under the conditions of high [DXPS] required for this method. Since in this case [DXPS] ≫ KD^app, an accurate determination of KD^app is not possible, and data were fit to a quadratic equation to give an estimated upper limit for the value of KD^app (≤0.04 ± 0.01 μM). Addition of 10 to DXPS also results in an increased, broad CD signal (Figure S7A), indicating PLThDP formation. […]
# CD titrations of 8 and 10 onto WT, R99A, and R478A EcDXPS variants were conducted at 25 °C under aerobic conditions in 1.5 mL solutions containing 30 μM EcDXPS in 50 mM HEPES pH 8, 100 mM NaCl, 1 mM MgCl2, and 0.2 mM ThDP. […] The CD signals at 294 nm determined from the difference spectra obtained by subtracting the signal of E-ThDP at 294 nm were plotted as a function of [inhibitor] and fit to (1) the quadratic equation described in eq 2 (8 on WT DXPS), where E is the concentration of DXPS taking into account stoichiometric binding and CDmax is the maximal CD signal, or (2) a one-site specific binding curve (all other experiments) using GraphPad Prism Version 9 to calculate an apparent KD. Experiments were conducted in triplicate and the standard error was calculated. […]
# At the conclusion of the titration described above, the CD signal at 313 nm (previously characterized for LThDP) was recorded. […]
smiles,measurement,setting,value
CC(=O)P(=O)(O)OCCc1cn(C(Cc2ccccc2)(Cc2ccccc2)C(=O)O)nn1 [Compound 8],IC50,R478A EcDXPS,1.01 ± 0.381 µM
same,estimated selectivity ratio for DXPS over porcine PDH,[1]; DXPS over porcine PDH,"> 64,000 fold"
same,inhibition of PDH,"[1]; at a concentration of 1 mM, 60 μM pyruvate, 10 min preincubation",21%
same,Kd,WT EcDXPS,≤ 0.04 µM
same,change in PLThDP CD signal upon addition of 1 mM pyruvate,"WT EcDXPS; WT EcDXPS 30 μM, inhibitor 30 μM",negligible shift in the CD signal
